{"source": "patent US20040175352A1", "about": "“Microbicidal compositions including an ionene polymer and 2,4,4-trichloro-2-hydroxydiphenyl ether, and methods of using the same” (priority 2003, published 2004)", "format_in_all_cases": "cell-based", "key": {"Pseudomonas aeruginosa": {"test_system": "Pseudomonas aeruginosa", "test": "Bacterial evaluation, Pseudomonas aeruginosa growth prevention (end point, Kull synergism)", "procedure": "(§1) Nutrient broth (2.5 g/liter of deionized water) was prepared. This was distributed in 5 ml amounts in test tubes and autoclaved at 121° C. for 20 minutes. After addition of the biocides in the desired concentrations to the nutrient broth, 100 microliters of a 24-hour grown suspension of Pseudomonas aeruginosa or Klebsiella pneumoniae cells of approximately 9.3×10^8 cfu/ml were added and incubated at 30° C. for 24 or 48 hours.\n(§2) (Busan® 77), poly[hydroxyethylene-(dimethyliminio)-2-hydroxypropylene(dimethyliminio)methylene dichloride] (Busan® 1055 or APCA), or a cross-linked terpolymer of dimethylamine, epichlorohydrin and ethylenediamine (Busan® 1157), (designated component A), and triclosan (designated component B) in a series of tests in varying ratios and a range of concentrations against the fungi Trichoderma viride, and Aspergillus niger, the bacteria Pseudomonas aeruginosa and Klebsiella pneumoniae, and the alga Chlorella sp. using the methods described above.\n(§3) End points for the various mixtures were then compared with the end points for the pure active ingredients alone in concomitantly prepared flasks or test tubes.\n(§4) Qa=Concentration of compound A in parts per million, acting alone, which produced an end point.\n(§5) Qb=Concentration of compound B in parts per million, acting alone, which produced an end point. […]"}, "Klebsiella pneumoniae": {"test_system": "Klebsiella pneumoniae", "test": "Bacterial evaluation, Klebsiella pneumoniae growth prevention (end point, Kull synergism)", "settings": "lowest concentration completely preventing growth for 24 or 48 hours, nutrient broth, 30° C.", "procedure": "as §1, §2, §3, §4, §5"}, "Trichoderma viride": {"test_system": "Trichoderma viride", "test": "Fungal evaluation, Trichoderma viride growth prevention (end point, Kull synergism)", "settings": "lowest concentration completely preventing growth for seven days, mineral salts-glucose medium pH 6, 25° C.", "procedure": "Mineral salts-glucose medium was used. To prepare the medium, the following ingredients were added to 1 liter of deionized water: 0.7 g of KH2PO4; 0.7 g of MgSO4.7H2O; 1.0 g of HN4NO3; 0.005 g of NaCl; 0.002 g of FeSO4.7H20; 0.002 g ZnSO4.7H2O; 0.001 g of MnSO4.7H2O; 10 g of Glucose. The pH of the medium was adjusted to 6 with 1N NaOH. The medium was distributed in 5 ml amounts in test tubes and autoclaved at 121° C. for 20 minutes. The fungus, Trichoderma viride or Aspergillus niger, was grown on potato dextrose agar slant for 5 to 10 days and a spore suspension prepared by washing down the spores from the slant into a sterile saline solution. After addition of the biocides in the desired concentrations in the sterile mineral salts-glucose medium, the fungal spore suspension was added. The final spore concentration was approximately 10^6 cfu/ml. The inoculated media was incubated at 25° C. for 7 days.\n(Busan® 77), poly[hydroxyethylene-(dimethyliminio)-2-hydroxypropylene(dimethyliminio)methylene dichloride] […]"}, "Chlorella sp.": {"test_system": "Chlorella sp.", "test": "Algal evaluation, Chlorella sp. growth prevention (end point, Kull synergism)", "settings": "lowest concentration completely preventing growth for three or four weeks, modified Allen's medium pH 7.8, 25° C., 180 ft-candle", "procedure": "The medium used for testing the effectiveness of the invention against algae was modified Allen's medium (see Allen, A. A., Simple conditions for growth of unicellular blue-green algae on plates, JOURNAL OF PHYCOLOGY. 4:1-4 […]). To make modified Allen's medium, the following six individual stock solutions in g/200 ml of deionized water were first prepared: 1.50 g of K2HPO4; 1.50 g of MgSO4.7H20; 0.80 g Na2CO3; 0.5 g CaCl2.2H2O; 1.16 g Na2SiO3.9H2O; 1.20 g citric acid. A micronutrient stock solution was also prepared by adding the following ingredients to 1 liter of deionized water: 0.75 g of Na2EDTA; 0.097 g FeCl3.6H2O; 0.041 g of MnCl2.4H2O; 0.005 g ZnCl2; 0.002 g CoCl2.6H2O; 0.004 g Na2MoO4.2H2O. To make the final modified Allen's medium, the following ingredients and the stock solutions, prepared from above, were combined in a flask and then made up to 1 liter with deionized water: 1.5 g NaNO3; 5 ml K2HPO4; 5 ml MgSO4.7H2O; 5 ml Na2CO3; 10 ml CaCl2.2H2O; 10 ml Na2SiO3.9H2O; 1 ml citric acid; and 1 ml micronutrient stock solution. The pH was adjusted to 7.8. Then the medium was dispensed in 5 ml amounts in test tubes and autoclaved at 121° C. for 20 minutes. After autoclaving, the biocides were added to the medium in the desired concentrations. […]"}}, "note": "Where “and” joins values, the source holds several entries; their conditions need not be identical. Equal entries are not always repeated.", "data": [{"smiles": "Oc1cc(Cl)ccc1Oc1ccc(Cl)cc1Cl", "note": "[Triclosan, 2,4,4′-tricloro-2′-hydroxydiphenyl ether]", "values": [{"measurement": "Ob, quantity producing end point: concentration of component B (triclosan) acting alone", "setting": "Pseudomonas aeruginosa; Pseudomonas aeruginosa, lowest concentration completely preventing growth for 24 or 48 hours, nutrient broth, 30° C.", "result": ">500", "unit": "ppm"}, {"measurement": "effectiveness against Pseudomonas sp. when used individually", "setting": "Pseudomonas aeruginosa; Pseudomonas sp., component used individually", "result": "ineffective"}, {"measurement": "Ob, quantity producing end point: concentration of component B (triclosan) acting alone", "setting": "Klebsiella pneumoniae", "result": 0.5, "unit": "ppm"}, {"measurement": "Ob, quantity producing end point: concentration of component B (triclosan) acting alone", "setting": "Trichoderma viride", "result": 25, "unit": "ppm"}, {"measurement": "Ob, quantity producing end point: concentration of component B (triclosan) acting alone", "setting": "Chlorella sp.", "result": "0.5 ppm and 0.6 ppm"}]}]}
